According to publication PMC8194506 (Antiviral research, 2020):

Details: guinea pig, in vivo

## CCN(CC)CCOc1ccc2c(c1)C(=O)c1cc(OCCN(CC)CC)ccc1-2 [Tilorone]
  well tolerated dose: ≤ 60 mg/kg
